Data on four compounds can be found in patent publication US20180312493A1, “Antibiotic Compounds, Pharmaceutical Formulations Thereof And Methods And Uses Therefor” (Simon Fraser University, priority 2015, published 2018).

The target of series [1] is T1, MRSA Pyk (Staphylococcus aureus, UniProt Q6GG09).
T1 construct: made in house; host or cells: E. coli BL-21 (DE3)
In words: MRSA pyruvate kinase (PK) activity, continuous LDH-coupled assay. In kind it is biochemical, methicillin resistant S. aureus (MRSA252). The procedure, abridged: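 Activity monitored continuously as absorbance change at 340 nm from NADH oxidation via coupled lactate dehydrogenase, reactions started with 15 nM recombinant His-tagged PK (MRSA or human isoform) and run at 30° C for up to 5 min. Ki derived by varying inhibitor (0-400 nM) and PEP (2-20 mM) at 2 mM ADP; IC50 by four-parameter fitting.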

Series [2] concerns S. aureus ATCC 29123. As to the kind of experiment: Thigh infection model in neutropenic mice. In kind it is in vivo, female CD-1 mice. Conditions: thigh muscle, 10 mg/kg IV BID (2 and 8 h post-infection), 24 hr post infection. The protocol:
The antimicrobial activity of compounds 23 and 60 against S. aureus ATCC 29123 was tested in vivo using a thigh infection model in neutropenic mice. Briefly, animals (female CD-1 mice, 5 weeks of age) were made neutropenic prior to S. aureus thigh infection by pre-treating with cyclophosphamide (150 mg/kg, IP, −4 and −1 days pre-inoculation). On the inoculation day (day 0), mice were infected with S. aureus at time zero (t=0). Animals were individually monitored for adverse reactions for 30 min post-infection.
Compounds 23 and 60 were prepared for IV administration and for oral administration. Vancomycin was administered as a solution in PBS. The test compounds were administered at 2 and 8 hours post-infection and animals were individually monitored for adverse reactions for 30 min after each injection. All animals were then monitored hourly from 20 hours post infection to the endpoint (t=24 hr post infection). At the indicated timepoint, animals were sacrificed and the injected thigh collected.
Quantitative enumeration of bacterial load was determined by plating serial dilutions from homogenized thigh muscles. The plates were incubated and colony counts were determined. CFU per mL calculated was calculated.

Series [3] has as its system S. aureus (ATCC29213). In words: In vitro susceptibility, broth microdilution (MIC). The series is classed as cell-based. As to conditions: Staphylococcus aureus; S. aureus ATCC29213; 18-24 h, 37 C; read-out: Antimicrobial activity (MIC) S. aureus ATCC29213. The gist of the method:
(§1)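 CLSI 2-fold serial broth microdilution; K. pneumoniae C238 grown in L-broth, S. aureus ATCC 29213 in Mueller Hinton broth, plates incubated 18–24 h at 37 °C. MIC taken as lowest concentration giving complete growth inhibition by OD600 versus compound-free wells, background-subtracted.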

Series [4] relates to VRE#2 (2010A). In words: In vitro susceptibility, broth microdilution (MIC). In kind it is cell-based, vancomycin resistant Enterococci. As to conditions: VRE#2 (2010A); read-out: Antimicrobial activity (MIC) VRE#2. The procedure, abridged:
(§2)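 MIC determined by CLSI 2-fold broth microdilution in cation-adjusted Mueller–Hinton broth at ~2.5×10^5 CFU/ml, final compound 0.031–64 μg/ml, 18–24 h at 37 °C. MIC is the lowest concentration giving complete growth inhibition by background-corrected OD600 versus compound-free wells; duplicate or triplicate wells, replicated at least twice.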

The subject of series [5] is K. pneumoniae (C238). In words: In vitro susceptibility, broth microdilution (MIC). In kind it is cell-based. As to conditions: Klebsiella pneumoniae; K. pneumoniae (C238); read-out: Antimicrobial activity (MIC) K. pneumoniae. The gist of the method:
as §1

Series [6] has as its system MRSA MW2 (USA400). As to the kind of experiment: In vitro susceptibility, broth microdilution (MIC). In kind it is cell-based, methicillin resistant S. aureus. Conditions: Staphylococcus aureus; MRSA MW2 (USA400); read-out: Antimicrobial activity (MIC) MSRA USA400. The gist of the method:
as §2

Series [7] concerns S. typhimurium (ATCC BAA-185). In words: In vitro susceptibility, broth microdilution (MIC). In kind it is cell-based. Conditions: Salmonella enterica, read-out: Antimicrobial activity (MIC) S. typhimurium. The procedure, abridged:
as §2

Series [8] concerns MRSA (ATCC BAA-1762). In words: In vitro susceptibility, broth microdilution (MIC). In kind it is cell-based, methicillin resistant S. aureus. Conditions: Staphylococcus aureus; MRSA ATCC BAA-1762; read-out: Antimicrobial activity (MIC) MRSA ATCC BAA1762. The procedure, abridged: as §2
Series [9] deals with A. baumannii (ATCC 19606). In words: In vitro susceptibility, broth microdilution (MIC). The series is classed as cell-based. As to conditions: Acinetobacter baumannii, ATCC19606; A. baumannii ATCC 19606 (values without asterisk); read-out: Antimicrobial activity (MIC) A. baumannii. The procedure, abridged:
as §2

A short description of series [10]: Mammalian cytotoxicity, CellTiter 96 AQueous One (MTS). In kind it is cell-based. As to conditions: human, HeLa 229 cells, positive control. The protocol: The cytotoxic activities of compounds were determined for HeLa cells 229 (ATCC:CCL-2-.1) in microtiter cultures by measuring dehydrogenase activity using CellTiter 96® AQueous One Solution Cell Proliferation Assay™ (Promega™, Madison, Wis., USA), according to the manufacturer's protocol. Freshly split cells were seeded into microtiter wells (2×10^4/well) and grown for 24 hours. The original media was then removed and replaced with media containing the desired concentration of compound or solvent control (i.e., DMSO). Plates were incubated for 24 h at 37° C. in a humidified incubator with a 5% CO2 atmosphere. At the end of the growth period, cells were lysed by the addition of 20 μl of Cell Titer 96 Aqueous One™ solution, and the incubation was continued for another 3 h at 37° C. Production of formazan was determined at 490 nm on Benchmark Plus™ microplate spectrophotometer (Bio-Rad™). To control for intrinsic absorbance, control series containing inhibitor dilutions but no cells were run for every experiment and the resulting absorbance values were subtracted as background from the experimental readings. Growth in compound-free control wells was considered as 100% and percentage of growth inhibition was calculated for each compound concentration. Cytotoxicity was quantified as the CC50, the concentration of compound that inhibited 50% of conversion of MTS to formazan. […]

In brackets after ≈: the same amount, converted by molar mass.

T1 sequence (Q6GG09 whole entry): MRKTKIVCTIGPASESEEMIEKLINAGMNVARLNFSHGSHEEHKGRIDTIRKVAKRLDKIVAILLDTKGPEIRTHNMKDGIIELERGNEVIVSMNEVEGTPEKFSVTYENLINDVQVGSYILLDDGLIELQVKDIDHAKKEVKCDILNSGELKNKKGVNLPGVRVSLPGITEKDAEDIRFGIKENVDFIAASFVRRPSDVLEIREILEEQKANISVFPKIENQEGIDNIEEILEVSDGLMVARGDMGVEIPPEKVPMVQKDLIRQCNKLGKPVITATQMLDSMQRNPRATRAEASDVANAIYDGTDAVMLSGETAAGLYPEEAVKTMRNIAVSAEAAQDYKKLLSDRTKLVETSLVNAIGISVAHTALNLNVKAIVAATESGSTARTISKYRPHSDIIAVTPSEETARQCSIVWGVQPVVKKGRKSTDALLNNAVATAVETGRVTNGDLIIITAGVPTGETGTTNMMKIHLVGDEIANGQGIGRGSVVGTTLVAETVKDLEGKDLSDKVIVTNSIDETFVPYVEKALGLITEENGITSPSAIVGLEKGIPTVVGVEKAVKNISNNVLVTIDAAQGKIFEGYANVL

As to `CN(C)CCNC(=O)c1c(/C=C/c2ccc(Cl)cc2)[nH]c2cc(Br)ccc12` [Compound 23, (E)-6-Bromo-2-(4-chlorostyryl)-N-(2-(dimethylamino)ethyl)-1H-indole-3-carboxamide], the IC50 in series [1] is less than 100 nM. In addition, the “reduction in CFU” value in series [2] was found to be 3 log. Moreover, the MIC in series [3] was found to be 8 µg/mL (≈ 17.9 µM).

In series [1], `O=C(O)CCCC(=O)c1c(-c2cc3cc(Cl)ccc3[nH]2)[nH]c2cc(Br)ccc12` [Compound 102, 5-(6-bromo-5′-chloro-1H,1′H-[2,2′-biindol]-3-yl)-5-oxopentanoic Acid] displayed an IC50 of less than 100 nM. The MIC in series [4] was 16 µg/mL (≈ 34.8 µM); in series [3] it was 8 µg/mL (≈ 17.4 µM); in [5] it was 16 µg/mL (≈ 34.8 µM); in [6], 8 µg/mL (≈ 17.4 µM); in series [7] it was 8 µg/mL (≈ 17.4 µM).

Take `CN(C)CCOc1cc2[nH]c(-c3cc4ccc(Br)cc4[nH]3)cc2cc1Cl` [Compound 199, 2-((6′-Bromo-5-chloro-1H,1′H-[2,2′-biindol]-6-yl)oxy)-N,N-dimethylethan-1-amine]: in series [1], the IC50 is less than 100 nM. Moreover, the MIC was determined as 4 µg/mL (≈ 9.24 µM) in [4]; 4 µg/mL (≈ 9.24 µM) in series [3]; 4 µg/mL (≈ 9.24 µM) in series [8]; 8 µg/mL (≈ 18.5 µM) in series [9]; 32 µg/mL (≈ 73.9 µM) in series [7].

As for `COc1cc(O)c(CC=C(C)C)c(O)c1C(=O)/C=C/c1ccc(O)cc1` [xanthohumol], in series [10], the CC50 at 24 h was roughly 9 µg/mL (≈ 25.4 µM).
